{
  "source": "paper PMC3172902",
  "about": "(British Journal of Cancer, 2011)",
  "origin": "cited, not measured here",
  "target": "CDK2 (Homo sapiens, UniProt P24941)",
  "assay": "cell-free CDK2 inhibition (value printed without citation; method not described)",
  "assay_type": "biochemical",
  "data": [
    {"substance": "NU6252", "values": [
      {"measurement": "IC50", "value": 0.019, "unit": "µM"}
    ]}
  ]
}
